Test results as given in US5770563A, “Heparin- and sulfatide binding peptides from the type I repeats of human thrombospondin and conjugates thereof” (The United States of America as represented by the …, priority 1995, dated 1998).
Like-named read-outs stand apart in the source and are kept apart here. Square brackets hold non-standard residues; d marks the D form. Peptide text beside a SMILES is read from it. Mpa = O=C(O)CCS

Legend:
[1] = target: thrombospondin binding to sulfatide; assay: Inhibition of 125I-thrombospondin binding to sulfatide; design: species or system human; conditions: Table 1, free peptide
Description: (§1) The peptides were tested as inhibitors of laminin, thrombospondin or apolipoprotein E binding to a heparin-bovine serum albumen conjugate or to a sulfatide in a solid phase assay essentially following the procedure described in Zabrenetzky et al., Cancer Res., Vol. 50, pages 5937-5942 (1990). Sulfatide (0.2 μg/well for thrombospondin binding, 0.6 μg/well for laminin binding) was immobilized in a mixture of 50 ng of phosphatidyl choline, and 30 ng of cholesterol on polyvinyl chloride microtiter plates. Heparin-BSA (0.2 μg/well) was absorbed onto polyvinyl chloride microtiter plate wells by incubation of 50 μl of Dulbecco's PBS for 2 h at 37°. The wells were emptied and filled with 50 mM tris, pH 7.8 containing 150 mM NaCl, 1 mM CaCl2, 0.025% NaN3, and 1% BSA. After 30 minutes, the wells were emptied and 30 μl of various concentrations of potential inhibitory peptides diluted in the same buffer or buffer alone and 30 μl of ^125 I-labeled laminin, thrombospondin or apolipoprotein E (0.2 μg/ml) were added to each well. After 3 hours at 4°, the wells were washed 6 times with 0.15M NaCl, cut from the plate and the bound radioactivity counted. FIGS. 1A-B and 2A-B show the level of thrombospondin binding to sulfatide and heparin-BSA, respectively, in the presence of increasing concetrations of the peptides listed. FIGS. 3 and 4A-B show the level of laminin binding to sulfatide and heparin-BSA, respectively, in the presence of increasing concentrations of the listed peptides.

[2] = target: thrombospondin binding to heparin; assay: Inhibition of 125I-thrombospondin binding to immobilized heparin-BSA; design: species or system human; conditions: for inhibition of thrombospondin binding to heparin, in words: free peptide
Description: as §1
Microtiter plate wells were coated with heparin-BSA. Heparin-BSA (0.2 μg/well) was adsorbed by incubation in 50 μl of Dulbecco's PBS for 2 h at 370. The wells were emptied, filled with tris-BSA, and incubated for 30 to 60 minutes. The buffer was removed, and labelled thrombospondin was added and incubated in the wells for 3 h at 40. The wells were emptied and washed 4 times with saline. The bottoms of the wells were cut from the plate and counted to quantify thrombospondin binding. Inhibition of thrombospondin binding was determined using peptides diluted in 30 μl of 50 mM tris buffer, pH 7.8, containing 110 mM NaCl, 1 mM CaCl2, 0.025% NaN3, and 1% BSA or buffer alone and 30 μl of ^125 I-labeled TSP (0.2 μg/ml).

[3] = target: laminin binding to heparin; assay: Inhibition of 125I-laminin binding to heparin-BSA; design: species or system mouse; conditions: for IC50: Table 2, free peptide
Description: as §1

[4] = target: apolipoprotein E binding to heparin; assay: Inhibition of 125I-apolipoprotein E binding to heparin-BSA; conditions: Table 2, free peptide; read-out: IC50 Apo E Binding to Heparin
Description: as §1

[5] = target: laminin binding to sulfatide; assay: Inhibition of 125I-laminin binding to sulfatide; design: species or system mouse; conditions: Table 2, free peptide
Description: as §1

[6] = target: basic fibroblast growth factor (FGF-2) binding to heparin; assay: Inhibition of 125I-bFGF binding to heparin-BSA conjugate
Description: Binding of ^125 I-bFGF to heparin was determined using an immobilized heparin-BSA conjugate as previously described (Guo, et al. (1992) Proc. Nat'l Acad. Sci. 89:3040-3044). ^125 I-bFGF, prepared as described by Neufeld, et al, (1985), J. Biol. Chem. 260:13860-13868, was added described above, and incubated for 2 hours at 25° C. Bound radioactivity was determined after washing and cutting the wells from the plate. FIGS. 40A, B and C show the inhibition of ^125 I-bFGF binding to heparin by a number of TSP peptide analogs.

[7] = system: MDA MB435 breast carcinoma cells; assay: MDA MB435 human breast carcinoma cell proliferation; format: cell-based
Description: Human breast carcinoma cells MDA MB435 (American Type Culture Collection) were grown in RPMI 1640 medium containing 10% fetal calf serum. Proliferation was determined as described in FIG. 18 and 44A, B and C.
Human breast carcinoma cells MDA MB435 (American Type Culture Collection) were grown in RPMI 1640 medium containing 10% fetal calf serum. Proliferation was determined in the presence of 0.5% fetal calf serum and bFGF as described in FIG. 19.

[8] = Table 1, free peptide, read-out: IC50 Heparin Binding, inhibition of 125I-thrombospondin binding
[9] = L-forward peptides, read-out: IC50 Inhibitory Activity
[10] = retro-inverso peptides, free, read-out: IC50 Inhibitory Activity, Free Peptide
[11] = retro-inverso peptides, read-out: IC50 for Inhibition of Binding

Row | Molecule | IC50 [1] [µM] | IC50 [2, 8] [µM] | IC50 [3] [µM] | IC50 [4] [µM] | IC50 [5] [µM] | IC50 [2, 10] [µM] | IC50 [6, 11] [µM] | also measured
1 | CC[C@H](C)[C@H](NC(=O)[C@H](CC(=O)O)NC(=O)[C@H](Cc1c[nH]c2ccccc12)NC(=O)[C@@H]1CCCN1C(=O)[C@H](CO)NC(=O)[C@H](Cc1c[nH]c2ccccc12)NC(=O)[C@@H]1CCCN1C(=O)CN)C(=O)N[C@@H](CS)C(=O)N[C@@H](CO)C(=O)N[C@H](C(=O)N[C@H](C(=O)O)[C@@H](C)O)C(C)C [Peptide 186, GPWSPWDICSVT] (H-GPWSPWDICSVT-OH) | 27 | 8.5 | 15 | 52 | 35 | – | – | –
2 | N[C@@H](CO)C(=O)N[C@@H](Cc1c[nH]cn1)C(=O)N[C@@H](Cc1c[nH]c2ccccc12)C(=O)N[C@@H](CO)C(=O)N1CCC[C@H]1C(=O)N[C@@H](Cc1c[nH]c2ccccc12)C(=O)N[C@@H](CO)C(=O)N[C@@H](CO)C(=O)O [Peptide 239, SHWSPWSS] (H-SHWSPWSS-OH) | 10 | 5.2 | 11 | 250 | 12 | – | – | inhibition of thrombospondin binding to heparin, in words [2]: more active than the intact dodecapeptide
3 | N[C@@H](Cc1c[nH]c2ccccc12)C(=O)N[C@@H](CO)C(=O)N1CCC[C@H]1C(=O)N[C@@H](Cc1c[nH]c2ccccc12)C(=O)N[C@@H](CO)C(=O)N[C@@H](CO)C(=O)N[C@@H](CS)C(=O)N[C@@H](CO)C(=O)O [Peptide 240, WSPWSSCS] (H-WSPWSSCS-OH) | 100 | 66 | 100 | 150 | 100 | – | – | –
4 | CC(C)[C@H](NC(=O)[C@H](CO)NC(=O)[C@H](CS)NC(=O)[C@H](CO)NC(=O)[C@H](CO)NC(=O)[C@H](Cc1c[nH]c2ccccc12)NC(=O)[C@@H]1CCCN1C(=O)[C@H](CO)NC(=O)[C@@H](N)Cc1c[nH]c2ccccc12)C(=O)N[C@H](C(=O)O)[C@@H](C)O [Peptide 241, WSPWSSCSVT] (H-WSPWSSCSVT-OH) | 34 | 35 | 34 | 180 | 50 | – | – | –
5 | C[C@H](NC(=O)[C@H](Cc1c[nH]cn1)NC(=O)[C@@H](N)CO)C(=O)N[C@@H](CO)C(=O)N1CCC[C@H]1C(=O)N[C@@H](C)C(=O)N[C@@H](CO)C(=O)N[C@@H](CO)C(=O)O [Peptide 244, SHASPASS] (H-SHASPASS-OH) | > 200 | > 200 | > 200 | > 200 | – | – | – | fold less active than the natural sequence SHWSPWSS ([2]; Trp replaced by Ala): more than 100 fold
6 | NCC(=O)NCC(=O)N[C@@H](Cc1c[nH]c2ccccc12)C(=O)N[C@@H](CO)C(=O)N[C@@H](Cc1c[nH]cn1)C(=O)N[C@@H](Cc1c[nH]c2ccccc12)C(=O)N[C@@H](CO)C(=O)N1CCC[C@H]1C(=O)N[C@@H](Cc1c[nH]c2ccccc12)C(=O)N[C@@H](CO)C(=O)N[C@@H](CO)C(=O)O [Peptide 256, GGWSHWSPWSS] (H-GGWSHWSPWSS-OH) | – | – | – | – | – | – | – | inhibition of thrombospondin binding to heparin, in words [2]: decreased activity; inhibition of laminin binding, in words ([3]; free peptide): increased activity; IC50 [6, 9]: > 40 µM
7 | CC(=O)N[C@H](CS)C(=O)N[C@H](CO)C(=O)N[C@H](CO)C(=O)N[C@H](Cc1c[nH]c2ccccc12)C(=O)N1CCC[C@@H]1C(=O)N[C@H](CO)C(=O)N[C@H](Cc1c[nH]c2ccccc12)C(=O)N[C@H](Cc1c[nH]cn1)C(=O)N[C@H](CO)C(=O)N[C@H](Cc1c[nH]c2ccccc12)C(=O)NCC(=O)NCC(=O)N[C@H](CC(=O)O)C(=O)N[C@H](CCC(N)=O)C(=O)N[C@H](CCCCN)C(=O)N[C@H](C)C(=O)N[C@H](CCCNC(=N)N)C(=O)N[C@H](CCCCN)C(N)=O [Peptide 474, ri-amKRAKQDGGWSHWSPWSSCac] (Ac-[dC][dS][dS][dW][dP][dS][dW][dH][dS][dW]GG[dD][dQ][dK][dA][dR][dK]-NH2) | – | – | – | – | – | 0.1 | 0.95 | –
8 | CC(=O)N[C@H](CS)C(=O)N[C@H](CO)C(=O)N[C@H](CO)C(=O)N[C@H](C)C(=O)N1CCC[C@@H]1C(=O)N[C@H](CO)C(=O)N[C@H](C)C(=O)N[C@H](Cc1c[nH]cn1)C(=O)N[C@H](CO)C(=O)N[C@H](C)C(=O)NCC(=O)NCC(=O)N[C@H](CC(=O)O)C(=O)N[C@H](CCC(N)=O)C(=O)N[C@H](CCCCN)C(=O)N[C@H](Cc1ccccc1)C(=O)N[C@H](CCCNC(=N)N)C(=O)N[C@H](CCCCN)C(N)=O [Peptide 475, ri-amKRFKQDGGASHASPASSCac] (Ac-[dC][dS][dS][dA][dP][dS][dA][dH][dS][dA]GG[dD][dQ][dK][dF][dR][dK]-NH2) | – | – | – | – | – | 10 | > 20 | –
9 | CC(=O)N[C@H](CS)C(=O)N[C@H](CO)C(=O)N[C@H](CO)C(=O)N[C@H](Cc1c[nH]c2ccccc12)C(=O)N1CCC[C@@H]1C(=O)N[C@H](CO)C(=O)N[C@H](Cc1c[nH]c2ccccc12)C(=O)N[C@H](Cc1c[nH]cn1)C(=O)N[C@H](CO)C(=O)N[C@H](Cc1c[nH]c2ccccc12)C(=O)NCC(=O)NCC(=O)N[C@H](C)C(=O)N[C@H](CCC(N)=O)C(=O)N[C@H](CCCCN)C(=O)N[C@H](C)C(=O)N[C@H](CCCNC(=N)N)C(=O)N[C@H](CCCCN)C(N)=O [Peptide 476, ri-amKRAKQAGGWSHWSPWSSCac] (Ac-[dC][dS][dS][dW][dP][dS][dW][dH][dS][dW]GG[dA][dQ][dK][dA][dR][dK]-NH2) | – | – | – | – | – | 0.03 | 0.22 | –
10 | C[C@@H](NC(=O)CCS)C(=O)N[C@H](C)C(=O)N[C@H](CO)C(=O)N[C@H](Cc1c[nH]c2ccccc12)C(=O)N[C@H](Cc1c[nH]cn1)C(=O)N[C@H](CO)C(=O)N[C@H](Cc1c[nH]c2ccccc12)C(=O)NCC(=O)N[C@H](C)C(=O)N[C@H](CCC(N)=O)C(=O)N[C@H](CCCCN)C(=O)N[C@H](C)C(=O)N[C@H](CCCNC(=N)N)C(=O)N[C@H](CCCCN)C(N)=O [Peptide 525, ri-amKRAKQAGWSHWSAAtc] ([Mpa][dA][dA][dS][dW][dH][dS][dW]G[dA][dQ][dK][dA][dR][dK]-NH2) | – | – | – | – | – | 0.035 | 0.28 | –
11 | CC(=O)N[C@@H](CCCCN)C(=O)N[C@@H](CCCNC(=N)N)C(=O)N[C@@H](C)C(=O)N[C@@H](CCCCN)C(=O)N[C@@H](CCC(N)=O)C(=O)N[C@@H](C)C(=O)NCC(=O)NCC(=O)N[C@@H](Cc1c[nH]c2ccccc12)C(=O)N[C@@H](CO)C(=O)N[C@@H](Cc1c[nH]cn1)C(=O)N[C@@H](Cc1c[nH]c2ccccc12)C(=O)N[C@@H](C)C(=O)N[C@@H](C)C(=O)N[C@@H](CS)C(N)=O [acKRAKQAGGWSHWAACam] (Ac-KRAKQAGGWSHWAAC-NH2) | – | – | – | – | – | – | – | IC50 ([2]; L-forward peptides, free, read-out: IC50 Inhibitory Activity, Free Peptide): 0.045 µM; IC50 [6, 9]: 0.41 µM
12 | KRFKQDGGWSHWSPWSSC [Peptide 364] | – | – | – | – | – | – | – | inhibition of MDA435 proliferation, in words ([7]; FICOLL conjugate): strongly inhibited proliferation; fold less active than native thrombospondin ([7]; from dose response curves, 0.5% fetal calf serum and bFGF): approximately 10 fold; activity relative to native thrombospondin on a subunit molar basis ([7]; subunit molar basis): about three-fold less active
